In brackets after ≈: the same amount, converted by molar mass.
Test system: P388
Test: Cytotoxicity against mouse P388 cells
Assay type: functional, cell-based

`COc1ccc(C[C@H]2C(=O)N[C@@H](C)C(=O)N(C)[C@H]3Cc4ccc(cc4)Oc4cc(ccc4OC)C[C@@H](C(=O)N[C@H](C)C(=O)N[C@@H](C)C(=O)N2C)N(C)C3=O)cc1` showed an IC50 of 0.0043 mg/L (≈ 0.00558 µM).
`COc1ccc(C[C@H]2C(=O)N[C@@H](C)C(=O)N(C)[C@H]3Cc4ccc(cc4)Oc4cc(ccc4OC)C[C@@H](C(=O)N[C@H](C)C(=O)N[C@@H](C)C(=O)N2C)N(C)C3)cc1` showed an IC50 of 5 mg/L (≈ 6.61 µM).

Source: ChEMBL document CHEMBL2016486, “Synthesis of [Tyr-5-Ψ(CH2NMe)-Tyr-6]RA-VII, a reduced peptide bond analogue of RA-VII, an antitumor bicyclic hexapeptide” (Bioorg Med Chem Lett, 2012)
